Test results: ChEMBL document CHEMBL1132713, “Emerging molecular approaches to pain therapy” (J Med Chem, 1999)
pKi: −log10 of the molar value.

Assays:
[1] = target: Delta-type opioid receptor (Homo sapiens, UniProt P41143); test: Opioid receptor delta 1 agonist activity was determined; type: functional
[2] = target: Proteasome; test: Inhibitory activity against 26S proteasome degradation of IkB; type: subcellular

Delta-type opioid receptor, sequence (P41143 whole entry): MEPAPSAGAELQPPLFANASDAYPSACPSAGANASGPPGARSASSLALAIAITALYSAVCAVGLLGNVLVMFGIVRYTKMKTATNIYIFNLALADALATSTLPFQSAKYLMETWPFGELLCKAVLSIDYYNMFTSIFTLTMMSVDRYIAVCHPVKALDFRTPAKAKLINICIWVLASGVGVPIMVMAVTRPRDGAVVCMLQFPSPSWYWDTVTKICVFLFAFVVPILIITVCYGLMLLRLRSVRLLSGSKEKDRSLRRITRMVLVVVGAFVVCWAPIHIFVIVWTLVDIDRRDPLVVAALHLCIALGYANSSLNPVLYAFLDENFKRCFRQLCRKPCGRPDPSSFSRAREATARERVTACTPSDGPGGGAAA

Row | SMILES | pKi [1] | pKi [2]
1 | COc1ccc2c3c1OC1C4NC(C(=O)OCC(C)C)=C(C)C4CC4C(C2)N(C)CCC341 (configuration not stated) | 8.32 | –
2 | CC(C)C[C@H](NC(=O)[C@@H](Cc1ccccc1)NC(=O)c1ccccc1)B(O)O | – | 9.22
